# Assay results reported in patent US20190105337A1, “METHODS OF TREATING BACTERIAL INFECTIONS” (priority 2015, published 2019).
# Assay: Example 6: plasma, epithelial lining fluid (ELF) and alveolar macrophage (AM) concentrations at bronchoscopy with BAL
# Settings: 8-hour sampling time
# Procedure: A total of twenty-five (n=25) male and female subjects who met the study entry criteria and completed all phases of the pharmacokinetic study were included in this pharmacokinetic analysis. […] Blood samples were collected to measure drug concentrations in plasma prior to (time 0), and at 1.5, 2.95, 3.083, 3.25, 3.5, 4, 6, and 8 hours after the start of a 3-hour intravenous infusion of the third combination dose.
# Urea has been commonly used as an endogenous marker to estimate the apparent volume of ELF. Blood samples to determine plasma urea concentrations were obtained just prior to scheduled bronchoscopy. Aliquots of BAL were obtained to determine urea concentrations in BAL and cell count with differential. The standardized bronchoscopy with BAL procedure for the collection of intrapulmonary samples has been previously described in the references listed below.
# (Reports MC14B-0013, MC14B-0015, MC14I-011, and MC14I-0012). The urea concentrations in plasma and BAL were performed with a microplate-based method with an 0-phthalaldehyde chromogenic solution at MicroConstants, Inc., San Diego, Calif.
# The calculations of ELF volume and drug concentrations in ELF and AM were performed with BAL supernatant and pulmonary (alveolar) cells (“cell pellet”) from aspirates recovered from the 2nd, 3rd, and 4th instillations (BAL2). The concentration of drug (ABXELF) in the epithelial lining fluid (ELF) was determined as follows:
# […]
# VELF is derived from the following:
# where UreaBAL is the concentration of urea in BAL fluid and UreaP is the concentration of urea in plasma.
# The concentration of drug (ABXAM) in the alveolar cells (AC) was determined as follows:
# Differential cell count was performed to determine the number of macrophages present. A mean macrophage cell volume of 2.42 μl/106 cells was used in the calculations for volume of alveolar cells in the pellet suspension.
# The concentration ratios of ELF and AM to the simultaneous plasma concentrations were calculated for each subject and summarized for each group at each sampling time. […] The 8-hour sampling time was also used as a value at time zero for determining the area term of plasma, ELF, and AM. The AUC0-8 for each matrix was determined with the linear trapezoidal method. The ratio of AUC0-8 of ELF to plasma and AM to plasma were calculated.
structure (smiles),measurement,value
C[C@@H](O)[C@@H](C(=O)O)[C@@H]1NC(C(=O)O)=C(S[C@@H]2CN[C@H](C(=O)N(C)C)C2)[C@@H]1C [meropenem open-lactam],ELF concentrations,below the quantifiable limit
